In US11254668B2, “Pyrazolo[1,5-A]pyrazin-4-yl and related derivatives” (Pfizer Inc., priority 2017, dated 2022):
Read-outs that look alike come from different tables or passages of the source.

Assays:
Format in all cases: biochemical
JAK3 = JAK3 (Homo sapiens (Human), UniProt P52333); test: JAK Caliper Enzyme Assay at 1 mM ATP, JAK3
Summary of the method: (§1)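 Recombinant human kinase domains phosphorylated a fluorescent synthetic peptide at room temperature, with enzyme level and time tuned to 20% to 30% conversion; EDTA stop buffer ended reactions. Mobility-shift separation gave percent product from peak heights, normalised to DMSO and positive controls, and IC50s came from concentration–effect curves.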

JAK1 = JAK1 (Homo sapiens (Human), UniProt P23458); test: JAK Caliper Enzyme Assay at 1 mM ATP, JAK1
JAK1, sequence (P23458 875-1153): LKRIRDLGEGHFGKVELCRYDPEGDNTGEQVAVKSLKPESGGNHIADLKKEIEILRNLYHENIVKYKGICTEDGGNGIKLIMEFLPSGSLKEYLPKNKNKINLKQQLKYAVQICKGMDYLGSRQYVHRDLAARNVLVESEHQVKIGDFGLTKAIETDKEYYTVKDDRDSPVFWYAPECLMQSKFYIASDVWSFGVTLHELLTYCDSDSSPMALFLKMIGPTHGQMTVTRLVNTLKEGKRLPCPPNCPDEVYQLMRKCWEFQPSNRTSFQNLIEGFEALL
Summary of the method: as §1

JAK2 = JAK2 (Homo sapiens (Human), UniProt O60674); test: JAK Caliper Enzyme Assay at 1 mM ATP, JAK2
JAK2, sequence (O60674 849-1124): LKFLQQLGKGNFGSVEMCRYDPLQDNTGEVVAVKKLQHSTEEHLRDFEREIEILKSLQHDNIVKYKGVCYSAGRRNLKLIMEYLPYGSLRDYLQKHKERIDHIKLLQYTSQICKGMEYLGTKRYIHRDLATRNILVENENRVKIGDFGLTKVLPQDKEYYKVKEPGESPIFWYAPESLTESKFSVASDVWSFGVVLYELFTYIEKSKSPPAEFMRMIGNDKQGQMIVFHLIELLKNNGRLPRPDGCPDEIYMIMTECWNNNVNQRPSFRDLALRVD
Summary of the method: (§2)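 Human recombinant kinase domain + fluorescently labelled synthetic peptide, 1 mM ATP, RT; enzyme level/time set for 20–30% phosphorylation. EDTA stop. LabChip separation, peak-height % conversion, % effect vs plate controls.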

TYK2 = TYK2 (Homo sapiens (Human), UniProt P29597); test: JAK Caliper Enzyme Assay at 1 mM ATP, TYK2
TYK2, sequence (P29597 897-1176): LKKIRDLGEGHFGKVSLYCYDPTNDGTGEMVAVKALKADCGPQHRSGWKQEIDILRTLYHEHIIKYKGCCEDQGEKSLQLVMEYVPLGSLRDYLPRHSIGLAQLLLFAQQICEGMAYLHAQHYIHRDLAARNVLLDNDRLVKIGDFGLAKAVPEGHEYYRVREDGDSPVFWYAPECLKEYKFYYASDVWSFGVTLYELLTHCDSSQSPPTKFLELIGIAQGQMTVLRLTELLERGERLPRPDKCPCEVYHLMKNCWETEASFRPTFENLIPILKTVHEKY
Summary of the method: as §2

JAK3, sequence (P52333 822-1111): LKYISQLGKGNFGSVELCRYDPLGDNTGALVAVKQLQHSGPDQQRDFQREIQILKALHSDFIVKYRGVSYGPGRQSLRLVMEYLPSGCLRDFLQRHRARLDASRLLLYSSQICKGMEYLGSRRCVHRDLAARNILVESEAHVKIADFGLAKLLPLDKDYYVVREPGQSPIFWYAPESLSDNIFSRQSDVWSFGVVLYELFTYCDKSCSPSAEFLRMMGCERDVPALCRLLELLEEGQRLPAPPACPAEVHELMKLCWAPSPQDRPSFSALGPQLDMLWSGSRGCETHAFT

| Compound | IC50 (JAK3) [nM] | IC50 (JAK1) [nM] | IC50 (JAK2) [nM] | IC50 (TYK2) [nM] | IC50 (JAK3; JAK Caliper enzyme assay) [nM] | IC50 (JAK1; JAK Caliper enzyme assay) [nM] | IC50 (JAK2; JAK Caliper enzyme assay) [nM] | IC50 (TYK2; JAK Caliper enzyme assay) [nM] |
| --- | --- | --- | --- | --- | --- | --- | --- | --- |
| Cn1cc(-c2cn3ncnc3c(-c3cnn(C4(CC#N)CN(S(C)(=O)=O)C4)c3)n2)cn1 [Example 478, [3-{4-[6-(1-methyl-1H-pyrazol-4-yl)[1,2,4,5-a]pyrazin-8-yl]-1H-pyrazol-1-yl}-1-(methylsulfonyl)azetidin-3-yl]acetonitrile] | – | – | – | – | > 10000 | > 10000 | 2190 | 281 |
| Cn1nc(-c2cc(-c3cnn([C@]4(CC#N)C[C@@H](C#N)C4)n3)c3cccnc3c2)cc1CO [Example 309, trans-3-(cyanomethyl)-3-(4-{7-[5-(hydroxymethyl)-1-methyl-1H-pyrazol-3-yl]quinolin-5-yl}-2H-1,2,3-triazol-2-yl)cyclobutanecarbonitrile] | > 10000 | 1880 | 163 | 29 | – | – | – | – |
| N#CC[C@]1(n2ncc(-c3cc(-c4ccc(N)nc4)cc4ncccc34)n2)C[C@H](C#N)C1 [Example 365, trans-3-{4-[7-(6-aminopyridin-3-yl)quinolin-5-yl]-2H-1,2,3-triazol-2-yl}-3-(cyanomethyl)cyclobutanecarbonitrile] | > 10000 | 2660 | 938 | 103 | – | – | – | – |
| CO[C@H]1C[C@@](CC#N)(n2cc(-c3nc(-c4cnn(CCO)c4)cc4ncccc34)cn2)C1 [Example 8, [cis-1-(4-{7-[1-(2-hydroxyethyl)-1H-pyrazol-4-yl]-1,6-naphthyridin-5-yl}-1H-pyrazol-1-yl)-3-methoxycyclobutyl]acetonitrile] | > 10000 | 661 | 126 | 130 | – | – | – | – |
| CS(=O)(=O)Nc1cncc(-c2cc3ncccc3c(-c3ccn(C4(CC#N)CN(S(C)(=O)=O)C4)n3)n2)c1 [Example 204, N-[5-(5-{1-[3-(cyanomethyl)-1-(methylsulfonyl)azetidin-3-yl]-1H-pyrazol-3-yl}-1,6-naphthyridin-7-yl)pyridin-3-yl]methanesulfonamide] | > 10000 | > 10000 | 6690 | 799 | – | – | – | – |
| CCn1cc(-c2cc3ncccc3c(-c3ccn(C4(CC#N)CN(S(C)(=O)=O)C4)n3)n2)ccc1=O [Example 251, [3-{3-[7-(1-ethyl-6-oxo-1,6-dihydropyridin-3-yl)-1,6-naphthyridin-5-yl]-1H-pyrazol-1-yl}-1-(methylsulfonyl)azetidin-3-yl]acetonitrile] | > 10000 | 541 | 229 | 48 | – | – | – | – |
| N#CCC1(n2ncc(-c3cc(-c4ccc(F)cn4)cc4ncccc34)n2)CC(C#N)C1 (stereo not drawn) [Example 348, trans-3-(cyanomethyl)-3-{4-[7-(5-fluoropyridin-2-yl)quinolin-5-yl]-2H-1,2,3-triazol-2-yl}cyclobutanecarbonitrile] | > 10000 | > 10000 | 876 | 143 | – | – | – | – |
| Cn1cc(-c2cc3nccnc3c(-c3ccn(C4(CC#N)CN(CC(F)(F)F)C4)n3)n2)cn1 [Example 482, [3-{3-[7-(1-methyl-1H-pyrazol-4-yl)pyrido[3,4-b]pyrazin-5-yl]-1H-pyrazol-1-yl}-1-(2,2,2-trifluoroethyl)azetidin-3-yl]acetonitrile] | – | – | – | – | > 10000 | > 10000 | > 10000 | 3790 |
| Cn1cc(-c2cc(-c3cnn([C@]4(CC#N)C[C@@H](C#N)C4)n3)c3cccnc3c2)nn1 [Example 339, trans-3-(cyanomethyl)-3-{4-[7-(1-methyl-1H-1,2,3-triazol-4-yl)quinolin-5-yl]-2H-1,2,3-triazol-2-yl}cyclobutanecarbonitrile] | > 10000 | 8370 | 146 | 36 | – | – | – | – |
| N#CCC1(n2ccc(-c3nc(-c4cncc(F)c4)cc4ncccc34)n2)CN(CC(F)(F)F)C1 [Example 178, [3-{3-[7-(5-fluoropyridin-3-yl)-1,6-naphthyridin-5-yl]-1H-pyrazol-1-yl}-1-(2,2,2-trifluoroethyl)azetidin-3-yl]acetonitrile] | > 10000 | > 10000 | 6780 | 1370 | – | – | – | – |
| CS(=O)(=O)c1ccc(-c2cc(-c3cnn([C@]4(CC#N)C[C@H](C#N)C4)n3)c3cccnc3c2)nc1 [Example 368, cis-3-(cyanomethyl)-3-(4-{7-[5-(methylsulfonyl)pyridin-2-yl]quinolin-5-yl}-2H-1,2,3-triazol-2-yl)cyclobutanecarbonitrile] | 7250 | 525 | 42 | 15 | – | – | – | – |
| CS(=O)(=O)Nc1cccc(-c2cc(-c3cnn(C4(CC#N)CC(C#N)C4)n3)c3cccnc3c2)n1 (stereo not drawn) [Example 372, N-[6-(5-{2-[cis-3-cyano-1-(cyanomethyl)cyclobutyl]-2H-1,2,3-triazol-4-yl}quinolin-7-yl)pyridin-2-yl]methanesulfonamide] | – | – | – | – | 5970 | 600 | 80 | 21 |

Results, then the compound that gave them:

| IC50 (JAK3) [nM] | IC50 (JAK1) [nM] | IC50 (JAK2) [nM] | IC50 (TYK2) [nM] | IC50 (JAK3; JAK Caliper enzyme assay) [nM] | IC50 (JAK1; JAK Caliper enzyme assay) [nM] | IC50 (JAK2; JAK Caliper enzyme assay) [nM] | IC50 (TYK2; JAK Caliper enzyme assay) [nM] | Compound |
| --- | --- | --- | --- | --- | --- | --- | --- | --- |
| > 10000 | 1910 | 509 | 45 | – | – | – | – | CO[C@H]1C[C@@](CC#N)(n2ccc(-c3nc(-c4cc(CO)n[nH]4)cc4ncccc34)n2)C1 [Example 51, [cis-1-(3-{7-[3-(hydroxymethyl)-1H-pyrazol-5-yl]-1,6-naphthyridin-5-yl}-1H-pyrazol-1-yl)-3-methoxycyclobutyl]acetonitrile] |
| > 10000 | 2140 | 768 | 92 | – | – | – | – | Cc1cc(-c2cc3ncccc3c(-c3ccn([C@]4(CC#N)C[C@@H](C#N)C4)n3)n2)cc(N)n1 [Example 220, trans-3-{3-[7-(2-amino-6-methylpyridin-4-yl)-1,6-naphthyridin-5-yl]-1H-pyrazol-1-yl}-3-(cyanomethyl)cyclobutanecarbonitrile] |
| > 10000 | 308 | 177 | 31 | – | – | – | – | C[C@]1(C#N)C[C@@](CC#N)(n2ccc(-c3nc(-c4ccnc(N)c4)cc4ncccc34)n2)C1 [Example 201, cis-3-{3-[7-(2-aminopyridin-4-yl)-1,6-naphthyridin-5-yl]-1H-pyrazol-1-yl}-3-(cyanomethyl)-1-methylcyclobutanecarbonitrile] |
| > 10000 | 834 | 891 | 61 | – | – | – | – | N#CC[C@H]1C[C@](CC#N)(n2ccc(-c3nc(-c4ccn[nH]4)cc4ncccc34)n2)C1 [Example 22, 2,2′-(trans-1-{3-[7-(1H-pyrazol-5-yl)-1,6-naphthyridin-5-yl]-1H-pyrazol-1-yl}cyclobutane-1,3-diyl)diacetonitrile] |
| > 10000 | 6660 | 391 | 110 | – | – | – | – | CO[C@H]1C[C@@](CC#N)(n2ccc(-c3nc(-c4cnn(C5COC5)c4)cc4ncccc34)n2)C1 [Example 122, [cis-3-methoxy-1-(3-{7-[1-(oxetan-3-yl)-1H-pyrazol-4-yl]-1,6-naphthyridin-5-yl}-1H-pyrazol-1-yl)cyclobutyl]acetonitrile] |
| > 10000 | 2610 | 794 | 58 | – | – | – | – | Cc1ccc(-c2cc3ncccc3c(-c3ccn(C4(CC#N)CN(CC(F)(F)F)C4)n3)n2)cn1 [Example 177, [3-{3-[7-(6-methylpyridin-3-yl)-1,6-naphthyridin-5-yl]-1H-pyrazol-1-yl}-1-(2,2,2-trifluoroethyl)azetidin-3-yl]acetonitrile] |
| > 10000 | 739 | 125 | 33 | – | – | – | – | Cc1cc(-c2cc3ncccc3c(-c3ccn([C@]4(CC#N)C[C@](C)(C#N)C4)n3)n2)n[nH]1 [Example 45, cis-3-(cyanomethyl)-1-methyl-3-{3-[7-(5-methyl-1H-pyrazol-3-yl)-1,6-naphthyridin-5-yl]-1H-pyrazol-1-yl}cyclobutanecarbonitrile] |
| > 10000 | 266 | 82 | 42 | – | – | – | – | CO[C@H]1C[C@](CC#N)(n2cc(-c3nc(-c4cc(CO)n[nH]4)cc4ncccc34)cn2)C1 [Example 13, [trans-1-(4-{7-[3-(hydroxymethyl)-1H-pyrazol-5-yl]-1,6-naphthyridin-5-yl}-1H-pyrazol-1-yl)-3-methoxycyclobutyl]acetonitrile] |
| > 10000 | 3530 | 620 | 115 | – | – | – | – | CO[C@H]1C[C@@](CC#N)(n2ccc(-c3nc(-c4cnn(CCO)c4)cc4ncccc34)n2)C1 [Example 128, [cis-1-(3-{7-[1-(2-hydroxyethyl)-1H-pyrazol-4-yl]-1,6-naphthyridin-5-yl}-1H-pyrazol-1-yl)-3-methoxycyclobutyl]acetonitrile] |
| > 10000 | 1620 | 875 | 60 | – | – | – | – | Cc1n[nH]cc1-c1cc2ncccc2c(-c2ccn(C3(CC#N)CN(S(C)(=O)=O)C3)n2)n1 [Example 88, [3-{3-[7-(3-methyl-1H-pyrazol-4-yl)-1,6-naphthyridin-5-yl]-1H-pyrazol-1-yl}-1-(methylsulfonyl)azetidin-3-yl]acetonitrile] |
| > 10000 | 2580 | 362 | 81 | – | – | – | – | CS(=O)(=O)c1ccc(-c2cc3ncccc3c(-c3ccn([C@]4(CC#N)C[C@@H](C#N)C4)n3)n2)cn1 [Example 208, trans-3-(cyanomethyl)-3-(3-{7-[6-(methylsulfonyl)pyridin-3-yl]-1,6-naphthyridin-5-yl}-1H-pyrazol-1-yl)cyclobutanecarbonitrile] |
| 6750 | 71 | 50 | 9 | – | – | – | – | N#CCC1(n2ccc(-c3nc(-c4ccn[nH]4)cc4ncccc34)n2)CC(C#N)C1 (stereo not drawn) [Example 21, cis-3-(cyanomethyl)-3-{3-[7-(1H-pyrazol-5-yl)-1,6-naphthyridin-5-yl]-1H-pyrazol-1-yl}cyclobutanecarbonitrile] |
